Test [1] concerns the target T1, Prolyl endopeptidase FAP (Homo sapiens, UniProt Q12884).
T1 sequence (Q12884 whole entry): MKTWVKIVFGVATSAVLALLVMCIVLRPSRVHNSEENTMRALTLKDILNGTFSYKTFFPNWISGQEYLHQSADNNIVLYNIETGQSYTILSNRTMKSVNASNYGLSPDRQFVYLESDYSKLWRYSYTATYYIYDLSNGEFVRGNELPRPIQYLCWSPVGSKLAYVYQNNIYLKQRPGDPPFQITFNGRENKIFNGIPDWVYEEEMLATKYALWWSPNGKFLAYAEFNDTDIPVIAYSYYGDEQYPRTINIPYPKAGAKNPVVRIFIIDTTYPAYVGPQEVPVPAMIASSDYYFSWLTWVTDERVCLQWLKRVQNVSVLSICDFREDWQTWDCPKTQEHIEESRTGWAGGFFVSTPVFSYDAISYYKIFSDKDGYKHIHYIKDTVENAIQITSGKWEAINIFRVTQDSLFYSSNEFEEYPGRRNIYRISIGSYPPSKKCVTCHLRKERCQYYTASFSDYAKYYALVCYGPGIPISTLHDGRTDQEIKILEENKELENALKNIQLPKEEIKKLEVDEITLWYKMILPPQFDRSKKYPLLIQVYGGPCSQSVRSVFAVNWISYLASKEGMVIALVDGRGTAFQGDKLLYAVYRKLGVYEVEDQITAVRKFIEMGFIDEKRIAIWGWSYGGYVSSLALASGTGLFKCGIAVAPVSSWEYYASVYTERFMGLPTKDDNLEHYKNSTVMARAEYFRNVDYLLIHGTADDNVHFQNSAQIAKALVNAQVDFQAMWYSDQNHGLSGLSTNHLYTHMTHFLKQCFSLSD
The experiment in a line: Inhibition Assay. On the procedure: (§1) Inhibition assay of FAP. The compounds were precisely weighed (range between […]) on a micro-scale (HuberLab, Sartorius QUINTIX35-1S) and dissolved in DMSO to prepare stock solutions at 1 mM. Stock solutions were further diluted with FAP activation buffer (50 mM Tris, 100 mM NaCl, 1 mM EDTA, pH=7.4) to a final DMSO concentration of 10% v/v. 10 μL of each inhibitor were serially diluted in a 384 well plate (grenier-bio one, PS, F-bottom, Black, non-binding) with 10 μL of 10% DMSO FAP buffer (1:1 dilution). FAP (human and murine) was diluted to the desired concentration with FAP activation buffer and added to the serial dilution of inhibitor (10 μL for each well). Each protein-inhibitor solution was incubated for 30 minutes at room temperature. Each measurement was performed with an enzyme concentration (FAP) lower than the expected IC50. A 60 μM solution of substrate (Z-Gly-Pro-AMC) in FAP activation buffer (<1% DMSO) was added to the plate (10 μL for each well). The reaction was incubated from 1 minute to 48 hours at room temperature (22° C.-25° C.). The emission was read at 465 nm (excitation wavelength 360 nm) for 40 μs by Tecan Spark (s.n. 1808004082). […]

Test [2] addresses T2, Prolyl endopeptidase FAP (Mus musculus, UniProt P97321).
T2 sequence (P97321 whole entry): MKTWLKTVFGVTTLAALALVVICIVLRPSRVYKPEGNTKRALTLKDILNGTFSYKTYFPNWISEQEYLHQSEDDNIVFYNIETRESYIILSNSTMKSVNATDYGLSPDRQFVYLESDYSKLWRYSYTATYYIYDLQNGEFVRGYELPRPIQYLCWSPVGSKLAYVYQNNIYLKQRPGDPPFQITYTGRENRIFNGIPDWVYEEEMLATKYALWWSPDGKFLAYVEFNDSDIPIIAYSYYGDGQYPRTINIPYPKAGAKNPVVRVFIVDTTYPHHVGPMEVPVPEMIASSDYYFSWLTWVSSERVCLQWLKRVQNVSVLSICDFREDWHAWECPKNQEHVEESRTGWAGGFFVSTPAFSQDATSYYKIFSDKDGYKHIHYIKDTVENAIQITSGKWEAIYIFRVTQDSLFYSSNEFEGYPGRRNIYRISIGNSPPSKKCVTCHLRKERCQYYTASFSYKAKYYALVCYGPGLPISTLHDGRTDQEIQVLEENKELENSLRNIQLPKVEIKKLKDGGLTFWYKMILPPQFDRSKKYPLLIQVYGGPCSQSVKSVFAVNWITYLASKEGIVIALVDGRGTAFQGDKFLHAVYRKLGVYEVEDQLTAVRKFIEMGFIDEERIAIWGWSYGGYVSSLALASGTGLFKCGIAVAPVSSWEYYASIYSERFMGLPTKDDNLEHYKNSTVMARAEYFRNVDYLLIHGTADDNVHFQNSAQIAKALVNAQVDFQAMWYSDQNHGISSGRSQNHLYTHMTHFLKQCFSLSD
Description: Inhibition Assay. On the procedure:
as §1

Turning to `C#CC[C@H](NC(=O)[C@H](CCCNC(=N)N(C)C)NC(=O)c1coc(CNC(=O)CCC(=O)N2CC(F)(F)C[C@H]2C#N)c1)C(=O)N[C@@H](CCCCN)C(=O)O` [US20250177582, Compound 2], the concentration for half-maximal inhibition (IC50) in test [1] is 44.1 nM; in test [2] it was 29.2 nM.
